Our source for the Ki values is BindingDB's records for doi:10.1038/347146a0 (U. 109, 1990).

The structures appear in SMILES notation. pKi: −log10 of the molar value.

The target in assay [1] is D(3) dopamine receptor (Rattus norvegicus, UniProt P19020).
Assay [2] deals with D(2) dopamine receptor (Rattus norvegicus, UniProt P61169).
D(2) dopamine receptor, sequence (P61169 whole entry): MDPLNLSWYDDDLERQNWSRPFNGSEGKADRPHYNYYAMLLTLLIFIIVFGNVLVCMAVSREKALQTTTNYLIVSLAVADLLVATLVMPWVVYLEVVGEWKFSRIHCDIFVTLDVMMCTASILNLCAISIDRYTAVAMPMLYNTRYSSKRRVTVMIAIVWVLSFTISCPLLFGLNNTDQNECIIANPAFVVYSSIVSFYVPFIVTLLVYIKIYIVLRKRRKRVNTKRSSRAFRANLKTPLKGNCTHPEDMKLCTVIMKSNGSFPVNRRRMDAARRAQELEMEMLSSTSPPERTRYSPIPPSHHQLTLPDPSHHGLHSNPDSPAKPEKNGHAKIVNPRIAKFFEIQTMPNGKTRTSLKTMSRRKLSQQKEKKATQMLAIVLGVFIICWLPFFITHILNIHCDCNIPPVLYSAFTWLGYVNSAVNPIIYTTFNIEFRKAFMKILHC

D(3) dopamine receptor, sequence (P19020 whole entry): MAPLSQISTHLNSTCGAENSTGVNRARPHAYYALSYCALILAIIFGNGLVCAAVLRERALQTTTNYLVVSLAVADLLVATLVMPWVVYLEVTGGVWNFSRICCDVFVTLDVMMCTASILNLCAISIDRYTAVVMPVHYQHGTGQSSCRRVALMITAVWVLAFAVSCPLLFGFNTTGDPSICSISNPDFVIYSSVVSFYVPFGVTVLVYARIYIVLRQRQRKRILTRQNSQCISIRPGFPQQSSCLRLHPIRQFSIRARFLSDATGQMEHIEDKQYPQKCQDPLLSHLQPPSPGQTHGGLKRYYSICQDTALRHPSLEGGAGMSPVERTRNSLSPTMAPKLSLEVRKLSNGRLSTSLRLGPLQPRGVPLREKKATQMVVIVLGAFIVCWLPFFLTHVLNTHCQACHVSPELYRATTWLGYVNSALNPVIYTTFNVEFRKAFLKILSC

In the case of `CCCN(CCC)C1C=Cc2c(OC)cccc2C1C` (stereo unspecified) [CAS_5311190], the negative logarithm of the Ki (pKi) in assay [1] was 8.04; in assay [2] it was 7.40.
In the same order, the values of `Nc1nc2c(ncn2[C@@H]2O[C@H](COP(=O)(O)OP(=O)(O)NP(=O)(O)O)[C@@H](O)[C@H]2O)c(=O)[nH]1` [Guanylyl imidodiphosphate] are 7.57 and 5.77.
As to `CCS(=O)(=O)c1cc(C(=O)NCC2CCCN2CC2CC2)c(OC)cc1I` (stereo unspecified) [NSC_122245], the pKi in assay [1] was 8.92; in assay [2], 9.21.

For orientation: pKi means the Ki on a negative log10 scale, so that one unit is a factor of ten. Read a high pKi as a low Ki.
